Source: patent US20230295118A1 (EnhancedBio Inc., priority 2022, published 2023)

Key:
Assay type in all cases: cell-based
[1] = test system: mantle cell lymphoma cell (Mino or JeKo-1); assay: Antiproliferative effect, MTS cell viability assay; details: 72 h; for IC50: mantle cell lymphoma cell (Mino or JeKo-1), MTS assay, read-out: IC50 (anti-proliferation); for inhibition of cell proliferation of Mino cells: 0-1 μM, result in words
In short: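 Mino cells treated with compounds at 0, 0.0001, 0.001, 0.01, 0.1, 1 μM for 72 h; palbociclib and abemaciclib as positive controls. Viability by MTS, formazan absorbance read at 490 nm.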

CDK4 = target: T1, CDK4 (Homo sapiens, UniProt P11802); assay: CDK4 degradation (DC50, Dmax)
T1 construct: endogenous in cells

CDK6 = target: T2, CDK6 (Homo sapiens, UniProt Q00534); assay: CDK6 degradation (DC50, Dmax)
T2 construct: endogenous in cells
T2 sequence (Q00534 whole entry): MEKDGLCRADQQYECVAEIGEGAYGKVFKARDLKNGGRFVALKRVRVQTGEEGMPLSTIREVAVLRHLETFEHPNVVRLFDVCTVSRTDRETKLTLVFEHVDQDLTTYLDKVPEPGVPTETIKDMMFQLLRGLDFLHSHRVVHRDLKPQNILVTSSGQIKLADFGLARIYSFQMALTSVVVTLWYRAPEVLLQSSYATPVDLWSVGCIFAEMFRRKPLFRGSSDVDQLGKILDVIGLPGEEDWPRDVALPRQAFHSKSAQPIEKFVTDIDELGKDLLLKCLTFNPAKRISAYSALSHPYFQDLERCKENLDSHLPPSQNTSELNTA

T1 sequence (P11802 whole entry): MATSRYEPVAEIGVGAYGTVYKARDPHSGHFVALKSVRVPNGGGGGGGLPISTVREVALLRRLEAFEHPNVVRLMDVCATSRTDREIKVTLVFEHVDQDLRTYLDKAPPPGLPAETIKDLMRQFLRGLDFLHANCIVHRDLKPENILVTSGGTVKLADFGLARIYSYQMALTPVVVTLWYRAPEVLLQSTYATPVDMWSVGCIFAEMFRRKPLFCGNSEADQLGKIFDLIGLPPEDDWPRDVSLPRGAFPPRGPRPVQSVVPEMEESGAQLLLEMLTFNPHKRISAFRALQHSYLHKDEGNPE

Row | IC50 [1] | DC50 (CDK4) | Dmax (CDK4) | DC50 (CDK6) | Dmax (CDK6) | Compound | inhibition of cell proliferation of Mino cells [1]
1 | < 50 nM | 50 to 200 nM | > 60% | 50 to 200 nM | > 80% | CC(=O)c1c(C)c2cnc(Nc3ccc(N4CCN(CCCCNc5ccc6c(c5)C(=O)N(C5CCC(=O)NC5=O)C6=O)CC4)cn3)nc2n(C2CCCC2)c1=O (stereo not shown) [Compound 53, 5-((4-(4-(6-((6-acetyl-8-cyclopentyl-5-methyl-7-oxo-7,8-dihydropyrido[2,3-d]pyrimidin-2-yl)amino)pyridin-3-yl)piperazin-1-yl)butyl)amino)-2-(2,6-dioxopiperidin-3-yl)isoindoline-1,3-dione] | –
2 | < 50 nM | 50 to 200 nM | > 60% | 50 to 200 nM | > 60% | CC(=O)c1c(C)c2cnc(Nc3ccc(N4CCN(CCCCNc5ccc6c(c5)CN(C5CCC(=O)NC5=O)C6=O)CC4)cn3)nc2n(C2CCCC2)c1=O (stereo not shown) [Compound 54, 3-(5-((4-(4-(6-((6-acetyl-8-cyclopentyl-5-methyl-7-oxo-7,8-dihydropyrido[2,3-d]pyrimidin-2-yl)amino)pyridin-3-yl)piperazin-1-yl)butyl)amino)-1-oxoisoindolin-2-yl)piperidine-2,6-dione] | –
3 | 50 to 200 nM | 50 to 200 nM | > 60% | 50 to 200 nM | > 60% | CC(=O)c1c(C)c2cnc(Nc3ccc(N4CCN(CCCN(C)c5ccc6c(c5)C(=O)N(C5CCC(=O)NC5=O)C6=O)CC4)cn3)nc2n(C2CCCC2)c1=O (stereo not shown) [Compound 57, 5-((3-(4-(6-((6-acetyl-8-cyclopentyl-5-methyl-7-oxo-7,8-dihydropyrido[2,3-d]pyrimidin-2-yl)amino)pyridin-3-yl)piperazin-1-yl)propyl)(methyl)amino)-2-(2,6-dioxopiperidin-3-yl)isoindoline-1,3-dione] | –
4 | 50 to 200 nM | 50 to 200 nM | > 60% | 50 to 200 nM | > 60% | CC(=O)c1c(C)c2cnc(Nc3ccc(N4CCN(CCCCN(C)c5ccc6c(c5)C(=O)N(C5CCC(=O)NC5=O)C6=O)CC4)cn3)nc2n(C2CCCC2)c1=O (stereo not shown) [Compound 59, 5-((4-(4-(6-((6-acetyl-8-cyclopentyl-5-methyl-7-oxo-7,8-dihydropyrido[2,3-d]pyrimidin-2-yl)amino)pyridin-3-yl)piperazin-1-yl)butyl)(methyl)amino)-2-(2,6-dioxopiperidin-3-yl) isoindoline-1,3-dione] | –
5 | < 50 nM | 50 to 200 nM | > 80% | 50 to 200 nM | > 80% | CC(=O)c1c(C)c2cnc(Nc3ccc(N4CCN(CCCNc5cccc6c5C(=O)N(C5CCC(=O)NC5=O)C6=O)CC4)cn3)nc2n(C2CCCC2)c1=O (stereo not shown) [Compound 62, 4-((3-(4-(6-((6-acetyl-8-cyclopentyl-5-methyl-7-oxo-7,8-dihydropyrido[2,3-d]pyrimidin-2-yl)amino)pyridin-3-yl)piperazin-1-yl)propyl)amino)-2-(2,6-dioxopiperidin-3-yl) isoindoline-1,3-dione] | –

Second part, the compound before the results:

Row | Compound | IC50 [1] | DC50 (CDK4) | Dmax (CDK4) | DC50 (CDK6) | Dmax (CDK6) | inhibition of cell proliferation of Mino cells [1]
6 | CC(=O)c1c(C)c2cnc(Nc3ccc(N4CCN(CCCNc5cc6c(cc5F)C(=O)N(C5CCC(=O)NC5=O)C6)CC4)cn3)nc2n(C2CCCC2)c1=O (stereo not shown) [Compound 52, 3-(5-((3-(4-(6-((6-acetyl-8-cyclopentyl-5-methyl-7-oxo-7,8-dihydropyrido[2,3-d]pyrimidin-2-yl)amino)pyridin-3-yl)piperazin-1-yl)propyl)amino)-6-fluoro-1-oxoisoindolin-2-yl) piperidine-2,6-dione] | < 50 nM | 50 to 200 nM | > 80% | 50 to 200 nM | > 80% | –
7 | CC(=O)c1c(C)c2cnc(Nc3ccc(N4CCN(CCN(C)c5ccc6c(c5)C(=O)N(C5CCC(=O)NC5=O)C6=O)CC4)cn3)nc2n(C2CCCC2)c1=O (stereo not shown) [Compound 55, 5-((2-(4-(6-((6-acetyl-8-cyclopentyl-5-methyl-7-oxo-7,8-dihydropyrido[2,3-d]pyrimidin-2-yl)amino)pyridin-3-yl)piperazin-1-yl)ethyl)(methyl)amino)-2-(2,6-dioxopiperidin-3-yl) isoindoline-1,3-dione] | 50 to 200 nM | 50 to 200 nM | > 60% | 50 to 200 nM | > 60% | –
8 | CC(=O)c1c(C)c2cnc(Nc3ccc(N4CCN(CCN(C)c5ccc6c(c5)CN(C5CCC(=O)NC5=O)C6=O)CC4)cn3)nc2n(C2CCCC2)c1=O (stereo not shown) [Compound 56, 3-(5-((2-(4-(6-((6-acetyl-8-cyclopentyl-5-methyl-7-oxo-7,8-dihydropyrido[2,3-d]pyrimidin-2-yl)amino)pyridin-3-yl)piperazin-1-yl)ethyl)(methyl)amino)-1-oxoisoindolin-2-yl)piperidine-2,6-dione] | 50 to 200 nM | 50 to 200 nM | > 60% | 50 to 200 nM | > 60% | –
9 | CC(=O)c1c(C)c2cnc(Nc3ccc(N4CCN(CCCN(C)c5ccc6c(c5)CN(C5CCC(=O)NC5=O)C6=O)CC4)cn3)nc2n(C2CCCC2)c1=O (stereo not shown) [Compound 58, 3-(5-((3-(4-(6-((6-acetyl-8-cyclopentyl-5-methyl-7-oxo-7,8-dihydropyrido[2,3-d]pyrimidin-2-yl)amino)pyridin-3-yl)piperazin-1-yl)propyl) (methyl)amino)-1-oxoisoindolin-2-yl) piperidine-2,6-dione] | 50 to 200 nM | 50 to 200 nM | > 60% | 50 to 200 nM | > 60% | –
10 | CC(=O)c1c(C)c2cnc(Nc3ccc(N4CCN(CCCCN(C)c5ccc6c(c5)CN(C5CCC(=O)NC5=O)C6=O)CC4)cn3)nc2n(C2CCCC2)c1=O (stereo not shown) [Compound 60, 3-(5-((4-(4-(6-((6-acetyl-8-cyclopentyl-5-methyl-7-oxo-7,8-dihydropyrido[2,3-d]pyrimidin-2-yl)amino)pyridin-3-yl)piperazin-1-yl)butyl)(methyl)amino)-1-oxoisoindolin-2-yl) piperidine-2,6-dione] | 50 to 200 nM | 50 to 200 nM | > 60% | 50 to 200 nM | > 60% | –
11 | CC(=O)c1c(C)c2cnc(Nc3ccc(N4CCN(CCN(C)c5cccc6c5C(=O)N(C5CCC(=O)NC5=O)C6=O)CC4)cn3)nc2n(C2CCCC2)c1=O (stereo not shown) [Compound 61, 4-((2-(4-(6-((6-acetyl-8-cyclopentyl-5-methyl-7-oxo-7,8-dihydropyrido[2,3-d]pyrimidin-2-yl)amino)pyridin-3-yl)piperazin-1-yl)ethyl)(methyl)amino)-2-(2,6-dioxopiperidin-3-yl) isoindoline-1,3-dione] | 50 to 200 nM | 50 to 200 nM | > 60% | 50 to 200 nM | > 60% | –
12 | CC(=O)c1c(C)c2cnc(Nc3ccc(N4CCN(C5CCN(c6ccc7c(c6)C(=O)N(C6CCC(=O)NC6=O)C7=O)CC5)CC4)cn3)nc2n(C2CCCC2)c1=O (stereo not shown) [Compound 63, 5-(4-(4-(6-((6-acetyl-8-cyclopentyl-5-methyl-7-oxo-7,8-dihydropyrido[2,3-d]pyrimidin-2-yl)amino)pyridin-3-yl)piperazin-1-yl)piperidin-1-yl)-2-(2,6-dioxopiperidin-3-yl)isoindoline-1,3-dione] | < 50 nM | 50 to 200 nM | > 80% | < 50 nM | > 80% | dose-dependent inhibition of cell proliferation
13 | CC(=O)c1c(C)c2cnc(Nc3ccc(N4CCN(C5CCN(c6ccc7c(c6)CN(C6CCC(=O)NC6=O)C7=O)CC5)CC4)cn3)nc2n(C2CCCC2)c1=O (stereo not shown) [Compound 64, 3-(5-(4-(4-(6-((6-acetyl-8-cyclopentyl-5-methyl-7-oxo-7,8-dihydropyrido[2,3-d]pyrimidin-2-yl)amino)pyridin-3-yl)piperazin-1-yl)piperidin-1-yl)-1-oxoisoindolin-2-yl)piperidine-2,6-dione] | < 50 nM | 50 to 200 nM | > 80% | 50 to 200 nM | > 80% | –
14 | CC(=O)c1c(C)c2cnc(Nc3ccc(N4CCN(CC5CCN(c6ccc7c(c6)C(=O)N(C6CCC(=O)NC6=O)C7=O)CC5)CC4)cn3)nc2n(C2CCCC2)c1=O (stereo not shown) [Compound 65, 5-(4-((4-(6-((6-acetyl-8-cyclopentyl-5-methyl-7-oxo-7,8-dihydropyrido[2,3-d]pyrimidin-2-yl)amino)pyridin-3-yl)piperazin-1-yl)methyl)piperidin-1-yl)-2-(2,6-dioxopiperidin-3-yl) isoindoline-1,3-dione] | < 50 nM | < 50 nM | > 80% | < 50 nM | > 80% | dose-dependent inhibition of cell proliferation
15 | CC(=O)c1c(C)c2cnc(Nc3ccc(N4CCN(CC5CCN(c6ccc7c(c6)CN(C6CCC(=O)NC6=O)C7=O)CC5)CC4)cn3)nc2n(C2CCCC2)c1=O (stereo not shown) [Compound 66, 3-(5-(4-((4-(6-((6-acetyl-8-cyclopentyl-5-methyl-7-oxo-7,8-dihydropyrido[2,3-d]pyrimidin-2-yl)amino)pyridin-3-yl)piperazin-1-yl)methyl)piperidin-1-yl)-1-oxoisoindolin-2-yl)piperidine-2,6-dione] | < 50 nM | 50 to 200 nM | > 80% | < 50 nM | > 80% | –
16 | CC(=O)c1c(C)c2cnc(Nc3ccc(N4CCN(CCN5CCN(c6ccc7c(c6)C(=O)N(C6CCC(=O)NC6=O)C7=O)CC5)CC4)cn3)nc2n(C2CCCC2)c1=O (stereo not shown) [Compound 67, 5-(4-(2-(4-(6-((6-acetyl-8-cyclopentyl-5-methyl-7-oxo-7,8-dihydropyrido[2,3-d]pyrimidin-2-yl)amino)pyridin-3-yl)piperazin-1-yl)ethyl)piperazin-1-yl)-2-(2,6-dioxopiperidin-3-yl) isoindoline-1,3-dione] | < 50 nM | < 50 nM | > 80% | 50 to 200 nM | > 80% | –
